Measurements from patent publication US20040229895A1, “Tetracyclic benzamide derivatives and methods of use thereof” (Inotek Pharmaceuticals Corporation, priority 2003, published 2004).

Target: T1, PARP (Mus musculus, UniProt P11103)
T1 construct: endogenous in cells; host or cells: RAW mouse macrophages
Test: PARP activation in peroxynitrite-stimulated cultured macrophages, whole-cell based assay (3H-NAD+ incorporation)
Details: RAW mouse macrophages, peroxynitrite-induced PARP activation, 10 min pretreatment; for inhibition at 0.3 µM: 300 nM; for inhibition at 0.1 µM: 100 nM
Method: RAW mouse macrophages were cultured in DMEM medium with high glucose and supplemented with 10% fetal bovine serum. Cells were used at 80% confluence in 12-well plates. Cells were pretreated with various concentrations (100 nM-1 μM) of a Tetracyclic Benzamide Derivative for 10 min. Peroxynitrite, a prototypical oxidant which induces DNA single strand breakage, was used to induce PARP activation. Peroxynitrite was diluted in phosphate buffered saline (PBS) (pH 11.0) and added to the cells in a bolus of 50 μl. Cells were then incubated for 20 min. […] After the 20 min incubation, the cells were spun, the medium was aspirated and the cells were resuspended in 0.5 mL assay buffer (56 mM HEPES pH 7.5, 28 mM KCl, 28 mM NaCl, 2 mM MgCl2, 0.01% w/v digitonin and 0.125 μM NAD^+ and 0.5 μCi/ml ^3H-NAD^+). Following an incubation in assay buffer, (10 min at 37° C.), PARP activity was measured as follows: 200 μl ice cold 50% w/v TCA was added and the samples were incubated for 4 h at 4° C. Samples were then spun (10 min @ 10,000 g) and pellets washed twice with ice cold 5% w/v TCA and solubilized overnight in 250 μl 2% w/v SDS/0.1 N NaOH at 37° C. The contents of the tubes were added to 6.5 mL ScintiSafe Plus scintillation liquid (Fisher Scientific) and radioactivity was determined using a liquid scintillation counter (Wallac, Gaithersburg, Md.).

T1 sequence (P11103 whole entry): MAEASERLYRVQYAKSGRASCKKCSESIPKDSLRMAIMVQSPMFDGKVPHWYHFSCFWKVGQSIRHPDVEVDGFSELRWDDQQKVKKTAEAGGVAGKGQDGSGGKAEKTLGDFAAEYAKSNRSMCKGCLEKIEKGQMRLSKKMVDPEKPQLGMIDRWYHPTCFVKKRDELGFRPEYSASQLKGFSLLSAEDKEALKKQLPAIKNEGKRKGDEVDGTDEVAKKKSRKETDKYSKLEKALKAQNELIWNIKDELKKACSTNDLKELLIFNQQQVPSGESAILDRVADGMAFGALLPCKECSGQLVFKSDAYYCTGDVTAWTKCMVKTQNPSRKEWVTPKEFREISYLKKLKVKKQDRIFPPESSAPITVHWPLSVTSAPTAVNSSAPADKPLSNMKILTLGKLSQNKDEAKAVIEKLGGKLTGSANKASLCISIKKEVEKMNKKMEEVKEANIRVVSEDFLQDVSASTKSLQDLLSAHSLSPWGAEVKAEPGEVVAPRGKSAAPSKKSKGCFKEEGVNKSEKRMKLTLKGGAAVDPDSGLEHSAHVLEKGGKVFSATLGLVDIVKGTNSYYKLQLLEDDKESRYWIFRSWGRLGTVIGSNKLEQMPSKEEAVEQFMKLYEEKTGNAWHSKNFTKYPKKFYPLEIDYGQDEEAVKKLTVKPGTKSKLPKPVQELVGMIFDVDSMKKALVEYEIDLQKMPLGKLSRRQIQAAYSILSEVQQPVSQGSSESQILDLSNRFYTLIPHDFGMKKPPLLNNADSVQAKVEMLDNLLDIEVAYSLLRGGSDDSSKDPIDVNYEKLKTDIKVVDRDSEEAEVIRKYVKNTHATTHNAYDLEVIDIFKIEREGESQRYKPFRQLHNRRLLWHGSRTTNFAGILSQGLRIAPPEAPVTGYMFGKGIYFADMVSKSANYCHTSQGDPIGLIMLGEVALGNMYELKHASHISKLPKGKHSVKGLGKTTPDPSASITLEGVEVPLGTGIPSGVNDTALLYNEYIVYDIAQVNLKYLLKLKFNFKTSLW

inhibition at 0.3 µM [%] | inhibition at 1 µM [%] | inhibition at 0.1 µM [%] | SMILES
9 | 70 | – | O=c1[nH]c2c(c3ccccc13)-c1ccc(S(=O)(=O)NCCCN3CCOCC3)cc1C2 [Compound 11a, 5-Oxo-5,7-dihydro-6H-indeno[2,1-c]isoquinoline-9-sulfonic acid (3-morpholin-4-yl-propyl)-amide]
66 | 67 | 40 | CC(=O)Oc1nc2c3ccccc3oc2c2ccccc12 [Compound 16g, Acetic acid 11-oxa-6-aza-benzo[a]fluoren-5-yl ester]
54 | 61 | 36 | Cc1ccc2c(n1)oc1c3ccccc3c(=O)[nH]c21 [Compound 26a, 9-Methyl-6H-11-oxa-6,10-diaza-benzo[a]fluoren-5-one]
